From US20250320213A1, “Nitrogen-Containing Heterocyclic Compounds” (Pfizer Inc., priority 2024, published 2025)

Experiments:
[1] = system: CCL17 secretion in peripheral human whole blood; assay: Human Whole Blood (HWB) CCL17 TR-FRET Assay (IL-13 stimulated CCL17 secretion); format: cell-based; details: Homo sapiens, 48 h, human whole blood, 10 ng/mL IL13, 48 hours
Procedure, shortened: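 Compounds are titrated (11 points, 3-fold, duplicate) into fresh heparinized human whole blood and held 2 h at 37 °C before IL-13 challenge (10 ng/mL final). After 48 h at 37 °C, serum CCL17 is measured by TR-FRET sandwich assay and IC50 values are calculated.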

STAT6 = biological target: T1, STAT6 (Homo sapiens, UniProt P42226); assay: STAT6 Reporter Luciferase Assay (IL-13 stimulated HaCaT keratinocyte NanoLuc reporter cells); format: cell-based; details: IL-13 stimulated HaCaT STAT6 NanoLuc reporter cells; read-out: Reporter EC50
T1 construct: stably transfected HaCaT keratinocyte cell line, which expresses NanoLuc luciferase reporter gene under the transcriptional control of the STAT6 responsive promoter; endogenous in cells; host or cells: HaCaT keratinocyte reporter cell line (stably transfected with a NanoLuc reporter)
T1 sequence (P42226 1-847): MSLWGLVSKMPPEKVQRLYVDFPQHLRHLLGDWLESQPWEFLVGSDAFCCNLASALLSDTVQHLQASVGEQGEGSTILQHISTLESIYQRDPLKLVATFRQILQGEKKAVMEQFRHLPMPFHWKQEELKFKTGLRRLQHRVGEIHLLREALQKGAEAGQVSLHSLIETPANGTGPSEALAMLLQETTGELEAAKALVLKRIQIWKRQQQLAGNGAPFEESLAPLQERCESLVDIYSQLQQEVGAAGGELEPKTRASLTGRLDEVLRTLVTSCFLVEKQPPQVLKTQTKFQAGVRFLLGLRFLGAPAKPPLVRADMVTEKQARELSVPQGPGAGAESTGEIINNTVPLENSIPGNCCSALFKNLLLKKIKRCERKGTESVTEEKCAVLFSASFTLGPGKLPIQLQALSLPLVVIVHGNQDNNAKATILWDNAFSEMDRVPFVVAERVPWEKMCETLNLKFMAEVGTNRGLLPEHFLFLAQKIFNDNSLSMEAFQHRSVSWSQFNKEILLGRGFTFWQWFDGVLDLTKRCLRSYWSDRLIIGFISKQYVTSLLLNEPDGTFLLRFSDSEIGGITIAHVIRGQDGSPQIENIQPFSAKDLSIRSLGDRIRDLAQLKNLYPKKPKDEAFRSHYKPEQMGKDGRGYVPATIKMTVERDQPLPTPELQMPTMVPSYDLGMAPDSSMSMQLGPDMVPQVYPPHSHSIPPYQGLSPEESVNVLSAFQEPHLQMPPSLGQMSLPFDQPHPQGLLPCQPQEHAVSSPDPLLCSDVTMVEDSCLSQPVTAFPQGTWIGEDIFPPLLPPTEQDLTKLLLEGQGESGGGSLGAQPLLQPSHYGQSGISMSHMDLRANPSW
Procedure, shortened: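 HaCaT cells stably carrying a NanoLuc reporter driven by the STAT6-responsive IL-13Ra2 promoter were preincubated with compounds for 2 h at 37 °C in 2% FBS medium. Cells were then stimulated with 0.12 nM IL-13 for 4 h, and luminescence was read after Nano-Glo substrate. Compounds ran as 11-point 4-fold dilutions in duplicate.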

Row | SMILES | IC50 [1] | EC50 (STAT6)
1 | CC(C)n1nc(C(=O)NCc2ccc(NC(=O)C3CCN(C)CC3)cc2)c2c1[C@@H](C)CN(c1ccc(C(=O)N(C)C)cc1)C2 [Example 585, (S)-5-(4-(dimethylcarbamoyl)phenyl)-1-isopropyl-7-methyl-N-(4-(1-methylpiperidine-4-carboxamido)benzyl)-4,5,6,7-tetrahydro-1H-pyrazolo[4,3-c]pyridine-3-carboxamide] | 37 nM | 6 nM
2 | CC(C)n1nc(C(=O)NCc2ccc(NC(=O)C3(F)CCN(C)CC3)cc2)c2c1[C@@H](C)CN(c1ccc(C(=O)N(C)C)cc1)C2 [Example 586, (S)-5-(4-(dimethylcarbamoyl)phenyl)-N-(4-(4-fluoro-1-methylpiperidine-4-carboxamido)benzyl)-1-isopropyl-7-methyl-4,5,6,7-tetrahydro-1H-pyrazolo[4,3-c]pyridine-3-carboxamide] | 58 nM | 6 nM
3 | CC(C)n1nc(C(=O)NCc2ccc(NC(=O)C3CCN(C)CC3)c(F)c2)c2c1[C@@H](C)CN(c1ccc(C(=O)N(C)C)cn1)C2 [Example 587, (S)-5-(5-(dimethylcarbamoyl)pyridin-2-yl)-N-(3-fluoro-4-(1-methylpiperidine-4-carboxamido)benzyl)-1-isopropyl-7-methyl-4,5,6,7-tetrahydro-1H-pyrazolo[4,3-c]pyridine-3-carboxamide] | 122 nM | 14 nM
4 | COc1cc(NC(=O)N2CCNCC2)c(F)cc1CNC(=O)c1nn(C(C)C)c2c1CN(c1ccc(C(=O)N(C)C)cc1)C[C@@H]2C [Example 588, (S)-5-(4-(dimethylcarbamoyl)phenyl)-N-(5-fluoro-2-methoxy-4-(piperazine-1-carboxamido)benzyl)-1-isopropyl-7-methyl-4,5,6,7-tetrahydro-1H-pyrazolo[4,3-c]pyridine-3-carboxamide] | 875 nM | 75 nM
5 | CC(C)n1nc(C(=O)NCc2ccc(NC(=O)N3CC4(CNC4)C3)c(F)c2)c2c1[C@@H](C)CN(c1ccc(C(=O)N(C)C)cc1)C2 [Example 595, (S)-5-(4-(dimethylcarbamoyl)phenyl)-N-(3-fluoro-4-(2,6-diazaspiro[3.3]heptane-2-carboxamido)benzyl)-1-isopropyl-7-methyl-4,5,6,7-tetrahydro-1H-pyrazolo[4,3-c]pyridine-3-carboxamide] | 83 nM | 64 nM
6 | CC(C)n1nc(C(=O)NCc2ccc(NC(=O)N3CCNCC3)c(Cl)c2)c2c1[C@@H](C)CN(c1ccc(C(=O)N(C)C)cc1)C2 [Example 596, (S)-N-(3-chloro-4-(piperazine-1-carboxamido)benzyl)-5-(4-(dimethylcarbamoyl)phenyl)-1-isopropyl-7-methyl-4,5,6,7-tetrahydro-1H-pyrazolo[4,3-c]pyridine-3-carboxamide] | 45 nM | 3 nM
7 | CNC1CN(C(=O)Nc2ccc(CNC(=O)c3nn(C(C)C)c4c3CN(c3ccc(C(=O)N(C)C)cc3)C[C@@H]4C)cc2F)C1 [Example 597, (S)-5-(4-(dimethylcarbamoyl)phenyl)-N-(3-fluoro-4-(3-(methylamino)azetidine-1-carboxamido)benzyl)-1-isopropyl-7-methyl-4,5,6,7-tetrahydro-1H-pyrazolo[4,3-c]pyridine-3-carboxamide] | 28 nM | 4 nM
8 | CC(C)n1nc(C(=O)NCc2ccc(C(=O)NC3CCN(C)CC3)cc2)c2c1[C@@H](C)CN(c1ccc(C(=O)N(C)C)cn1)C2 [Example 601, (S)-5-(5-(dimethylcarbamoyl)pyridin-2-yl)-1-isopropyl-7-methyl-N-(4-((1-methylpiperidin-4-yl)carbamoyl)benzyl)-4,5,6,7-tetrahydro-1H-pyrazolo[4,3-c]pyridine-3-carboxamide] | 2100 nM | 312 nM

Stronger by IC50 [1], values ahead:

Row | IC50 [1] | EC50 (STAT6) | SMILES
9 | 17 nM | 1 nM | CC(C)n1nc(C(=O)NCc2ccc(NC(=O)N3CCCC3)cc2)c2c1[C@@H](C)CN(c1ccc(C(=O)N(C)C)cn1)C2 [Example 583, (S)-5-(5-(dimethylcarbamoyl)pyridin-2-yl)-1-isopropyl-7-methyl-N-(4-(pyrrolidine-1-carboxamido)benzyl)-4,5,6,7-tetrahydro-1H-pyrazolo[4,3-c]pyridine-3-carboxamide]
10 | 12 nM | 1 nM | CC(C)n1nc(C(=O)NCc2ccc(NC(=O)N3CC(F)C3)cc2)c2c1[C@@H](C)CN(c1ccc(C(=O)N(C)C)cn1)C2 [Example 584, (S)-5-(5-(dimethylcarbamoyl)pyridin-2-yl)-N-(4-(3-fluoroazetidine-1-carboxamido)benzyl)-1-isopropyl-7-methyl-4,5,6,7-tetrahydro-1H-pyrazolo[4,3-c]pyridine-3-carboxamide]
11 | 19 nM | 3 nM | CC(C)n1nc(C(=O)NCc2ccc(NC(=O)N3CCNCC3)cc2F)c2c1[C@@H](C)CN(c1ccc(C(=O)N(C)C)cc1)C2 [Example 589, (S)-5-(4-(dimethylcarbamoyl)phenyl)-N-(2-fluoro-4-(piperazine-1-carboxamido)benzyl)-1-isopropyl-7-methyl-4,5,6,7-tetrahydro-1H-pyrazolo[4,3-c]pyridine-3-carboxamide]
12 | 10 nM | 0.4 nM | CC(C)n1nc(C(=O)NCc2ccc(NC(=O)N3CCC(F)(F)C3)cc2)c2c1[C@@H](C)CN(c1ccc(C(=O)N(C)C)cn1)C2 [Example 590, (S)-N-(4-(3,3-difluoropyrrolidine-1-carboxamido)benzyl)-5-(5-(dimethylcarbamoyl)pyridin-2-yl)-1-isopropyl-7-methyl-4,5,6,7-tetrahydro-1H-pyrazolo[4,3-c]pyridine-3-carboxamide]
13 | 10 nM | 1 nM | CC(C)n1nc(C(=O)NCc2ccc(NC(=O)N3CCC3)cc2)c2c1[C@@H](C)CN(c1ccc(C(=O)N(C)C)cn1)C2 [Example 591, (S)-N-(4-(azetidine-1-carboxamido)benzyl)-5-(5-(dimethylcarbamoyl)pyridin-2-yl)-1-isopropyl-7-methyl-4,5,6,7-tetrahydro-1H-pyrazolo[4,3-c]pyridine-3-carboxamide]
14 | 9 nM | 1 nM | CC(C)n1nc(C(=O)NCc2ccc(NC(=O)N3CCC(C)(O)CC3)cc2)c2c1[C@@H](C)CN(c1ccc(C(=O)N(C)C)cn1)C2 [Example 592, (S)-5-(5-(dimethylcarbamoyl)pyridin-2-yl)-N-(4-(4-hydroxy-4-methylpiperidine-1-carboxamido)benzyl)-1-isopropyl-7-methyl-4,5,6,7-tetrahydro-1H-pyrazolo[4,3-c]pyridine-3-carboxamide]
15 | 12 nM | 1 nM | CC(C)n1nc(C(=O)NCc2ccc(NC(=O)N3CCC(C)(C#N)CC3)cc2)c2c1[C@@H](C)CN(c1ccc(C(=O)N(C)C)cn1)C2 [Example 593, (S)-N-(4-(4-cyano-4-methylpiperidine-1-carboxamido)benzyl)-5-(5-(dimethylcarbamoyl)pyridin-2-yl)-1-isopropyl-7-methyl-4,5,6,7-tetrahydro-1H-pyrazolo[4,3-c]pyridine-3-carboxamide]
16 | 25 nM | 2 nM | CC(C)n1nc(C(=O)NCc2ccc(NC(=O)N3CCN(C)CC3)cc2)c2c1[C@@H](C)CN(c1ccc(-n3ccccc3=O)cc1)C2 [Example 594, (S)-1-isopropyl-7-methyl-N-(4-(4-methylpiperazine-1-carboxamido)benzyl)-5-(4-(2-oxopyridin-1(2H)-yl)phenyl)-4,5,6,7-tetrahydro-1H-pyrazolo[4,3-c]pyridine-3-carboxamide]
17 | 13 nM | 1 nM | CC(C)n1nc(C(=O)NCc2ccc(NC(=O)N(C)CC(F)F)cc2)c2c1[C@@H](C)CN(c1ccc(C(=O)N(C)C)cn1)C2 [Example 598, (S)-N-(4-(3-(2,2-difluoroethyl)-3-methylureido)benzyl)-5-(5-(dimethylcarbamoyl)pyridin-2-yl)-1-isopropyl-7-methyl-4,5,6,7-tetrahydro-1H-pyrazolo[4,3-c]pyridine-3-carboxamide]
18 | 12 nM | 1 nM | CC(C)n1nc(C(=O)NCc2ccc(NC(=O)N3CC(F)(F)C3)cc2)c2c1[C@@H](C)CN(c1ccc(C(=O)N(C)C)cn1)C2 [Example 599, (S)-N-(4-(3,3-difluoroazetidine-1-carboxamido)benzyl)-5-(5-(dimethylcarbamoyl)pyridin-2-yl)-1-isopropyl-7-methyl-4,5,6,7-tetrahydro-1H-pyrazolo[4,3-c]pyridine-3-carboxamide]
